Experimental data published in PubChem BioAssay (NCI).
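Each compound was tested at five concentrations against cells in 96-well plates for 48 hours. At the GI50, growth is halved. The concentration for full growth arrest is given as TGI.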

How the values were obtained:
Assay in all cases: NCI anticancer screen, dose series, 48 h
SR leukemia = system: SR leukemia
NCI-H23 lung = system: NCI-H23 lung
M19-MEL melanoma = system: M19-MEL melanoma
OVCAR-8 ovarian = system: OVCAR-8 ovarian
KM20L2 colon = system: KM20L2 colon
CCRF-CEM leukemia = system: CCRF-CEM leukemia
SF-539 CNS = system: SF-539 CNS
HS 578T breast = system: HS 578T breast
T-47D breast = system: T-47D breast
MCF7 breast = system: MCF7 breast

Structure (SMILES) | TGI (SR leukemia) [µM] | TGI (NCI-H23 lung) [µM] | TGI (M19-MEL melanoma) [µM] | TGI (OVCAR-8 ovarian) [µM] | TGI (KM20L2 colon) [µM] | TGI (CCRF-CEM leukemia) [µM] | TGI (SF-539 CNS) [µM] | GI50 (SR leukemia) [µM] | GI50 (NCI-H23 lung) [µM] | GI50 (M19-MEL melanoma) [µM] | GI50 (OVCAR-8 ovarian) [µM] | GI50 (KM20L2 colon) [µM] | GI50 (CCRF-CEM leukemia) [µM] | GI50 (SF-539 CNS) [µM] | GI50 (HS 578T breast) [µM] | TGI (HS 578T breast) [µM] | GI50 (T-47D breast) [µM] | TGI (T-47D breast) [µM] | GI50 (MCF7 breast) [µM] | TGI (MCF7 breast) [µM]
CCN(CC)CCOc1ccc(/C=C(\C#N)c2ccc(OCCN(CC)CC)cc2)cc1 | 30 | 42.6 | 28.9 | 42.6 | 4.5 | 44.2 | 20.6 | – | – | – | – | – | – | – | – | – | – | – | – | –
Cc1ccccc1N1C(=O)/C(=C/c2ccc(N(CCC#N)CCC#N)cc2)N=C1c1cc([N+](=O)[O-])ccc1Cl | > 100 | > 100 | – | – | > 100 | > 100 | > 100 | – | – | – | – | – | – | – | – | – | – | – | – | –
O=C1CCCC/C(=C/c2ccccc2)N1 | > 100 | > 100 | > 100 | > 100 | > 100 | > 100 | > 100 | – | – | – | – | – | – | – | – | – | – | – | – | –
O=c1nc2occc2cn1C1CC(O)C(CO)O1 (stereo not given) | > 100 | > 100 | > 100 | > 100 | > 100 | > 100 | > 100 | – | – | – | – | – | – | – | – | – | – | – | – | –
COC(=O)C(C(=O)C(=O)Nc1cccc(OC)c1)c1cnc2ccccc2n1 (stereo not given) | > 100 | > 100 | – | > 100 | > 100 | > 100 | > 100 | – | – | – | – | – | – | – | – | – | – | – | – | –
COC(=O)C1=C(C)N(NC(=O)c2ccccc2)C(C)(O)C12CCOC2=O (stereo not given) | – | > 100 | – | > 100 | > 100 | > 100 | > 100 | – | – | – | – | – | – | – | – | – | – | – | – | –
CC(O)C(N=Cc1ccccc1[O-])C(=O)[O-].CC(O)C(N=Cc1ccccc1[O-])C(=O)[O-].[Co+2] (stereo not given) | > 100 | > 100 | > 100 | > 100 | > 100 | > 100 | > 100 | 39.7 | > 100 | 78.8 | > 100 | > 100 | 20.1 | > 100 | – | – | – | – | – | –
CC1=Nc2ccccc2C1C(Cc1ccccc1N)c1c(C)[nH]c2ccccc12 (stereo not given) | 50.3 | 33.6 | 33.1 | 32.6 | 28.2 | 47.2 | 31.5 | – | – | – | – | – | – | – | – | – | – | – | – | –
CC1OC(n2cc(F)c(=O)[nH]c2=O)C=CC1O (stereo not given) | > 100 | > 100 | > 100 | > 100 | > 100 | > 77.9 | > 100 | – | – | – | – | – | – | – | – | – | – | – | – | –
O=C1OC(c2ccccc2)=N/C1=C/C=C/c1ccco1 | > 100 | > 100 | > 100 | > 100 | > 100 | > 100 | > 100 | – | – | – | – | – | – | – | – | – | – | – | – | –
O=C(O/N=C1/CCCC/C1=C\c1ccccc1)c1ccccc1 | > 100 | > 100 | > 100 | > 100 | > 100 | > 100 | > 100 | – | – | – | – | – | – | – | – | – | – | – | – | –
COc1ccc(OC)c(NC(=O)C(=O)NNC(=O)c2sc(NNC(C)=O)nc2C)c1 | > 100 | 68.8 | > 100 | > 100 | > 100 | 45.2 | 82.3 | – | – | – | – | – | – | – | – | – | – | – | – | –
COc1cc(Nc2cn[nH]c2-c2ccc(Cl)cc2)cc(OC)c1OC | 42.2 | > 60.8 | – | > 100 | – | > 81.9 | 24.7 | 2.23 | 8.33 | – | 14.3 | – | 3.42 | 4.48 | 3.88 | 63.1 | 4.56 | 56 | 3.3 | 53.2
Cc1ccc(SC(C)/C=C/NNC2=NC(c3ccccc3)C(c3ccccc3)=NN2)cc1 (stereo not given) | 65.1 | > 100 | > 100 | > 100 | 27.6 | > 100 | > 100 | – | – | – | – | – | – | – | – | – | – | – | – | –
CC(SC(C)C(=O)N/N=C/c1cccc(Cl)c1)C(=O)N/N=C\c1cccc(Cl)c1 (stereo not given) | 11.1 | 32.6 | – | 23.2 | – | 52.3 | 44.2 | 3.53 | 14 | – | 4.78 | – | 5.77 | 16.3 | 5.62 | 25.4 | 23 | 93.8 | 5.16 | 18.6
CC(C)c1ccc(Nc2ccc3c(OCCCN4CCN(C)CC4)cccc3n2)cc1 | 10.7 | 26.1 | – | 33.3 | – | 21.3 | 30 | 2.85 | 11.9 | – | 17.8 | – | 3.74 | 11.1 | 16.9 | 40.3 | 12.9 | 31.6 | 3.21 | 15
CC(C)(C)[SiH]12(OC(C(F)(F)F)(C(F)(F)F)c3ccccc31)OC(C(F)(F)F)(C(F)(F)F)c1ccccc12 | 6.38 | 9.64 | 26.4 | 28.9 | 7.83 | – | 6.54 | – | – | – | – | – | – | – | – | – | – | – | – | –
COC(=O)c1cc2c3ccccc3n(C(C)=O)c2cn1 | > 100 | > 100 | > 100 | > 100 | > 100 | > 100 | > 100 | – | – | – | – | – | – | – | – | – | – | – | – | –
COC(=O)C1=C(c2ccc3c(c2)OCO3)O[C@H](c2cc(OC)c(OC)c(OC)c2)[C@H]1COC(C)=O | 70.3 | 17.7 | 27.9 | 93.6 | 8.72 | > 100 | 6.91 | – | – | – | – | – | – | – | – | – | – | – | – | –
CCCCc1c(OC)cc(O)c2c1C(=O)c1[nH]c(C(=O)O)c(O)c(=O)c1C2=O | 29.3 | 20.3 | – | 28.8 | – | > 100 | 2.54 | – | – | – | – | – | – | – | – | 8.14 | – | > 100 | – | > 100
COc1ccc(NC(=O)CCc2cc(-c3ccc(O)c(OC)c3)nc(NC#N)n2)cc1 | > 100 | > 100 | > 100 | > 100 | > 100 | > 100 | > 100 | – | – | – | – | – | – | – | – | – | – | – | – | –
COc1ncnc(C2CC2)c1-c1ncc2cnn(Cc3ccc(-c4nc(C(F)(F)F)cn4C(C)C)cc3)c2n1 | > 100 | 78 | – | > 100 | – | > 100 | 39 | 19.7 | 21.8 | – | 21 | – | 34 | 16.1 | 17.8 | > 100 | 10.6 | 85.2 | 17.3 | 57.4
Cc1cc(Br)cc(C)c1NC(=O)C(=O)C(C(=O)c1ccc2ccccc2c1)C1OC(=O)c2ccccc21 (stereo not given) | 33.9 | 13.6 | 46.3 | 22.8 | 38.7 | 45.1 | 11.2 | – | – | – | – | – | – | – | – | – | – | – | – | –
CSc1nc2c(nc(C)c(=O)n2C2OCC(OC(C)=O)C(OC(C)=O)C2OC(C)=O)c(=O)[nH]1 (stereo not given) | > 100 | > 100 | > 100 | > 100 | > 100 | > 100 | – | – | – | – | – | – | – | – | – | – | – | – | – | –
